Source: ChEMBL document CHEMBL5608163, “Structure modification of anoplin for fighting resistant bacteria” (Eur J Med Chem, 2024)
≈ marks a conversion by molar mass, not a printed value. Values belong to the compound of their own block, whether it stands above or below them. Bridge positions count the residues as written; N and C are the ends. Square brackets hold non-standard residues; d marks the D form. Triazole bridges read from a SMILES are 1,4-linked. Peptide text beside a SMILES is read from it. I, II: the chains in the order shown. Lys(N3) = [N-]=[N+]=NCCCC[C@H](N)C(=O)O; S5 = C=CCCC[C@](C)(N)C(=O)O; Pra = C#CC[C@H](N)C(=O)O

What was measured:
Pseudomonas aeruginosa [1] = test: Antibacterial activity against Pseudomonas aeruginosa assessed as reduction in bacterial growth by broth microdilution method; assay type: functional
Staphylococcus aureus [2] = test: Antibacterial activity against Staphylococcus aureus; assay type: functional
[3] = Hemolytic activity in human RBC assessed as hemolysis; assay type: toxicity, cell-based, Erythrocyte; settings: red blood cells
Enterococcus faecium [4] = test: Antibacterial activity against Enterococcus faecium ATCC 27270; assay type: functional
Escherichia coli [5] = test: Antibacterial activity against Escherichia coli ATCC 25922 assessed as reduction in bacterial growth; assay type: functional
Escherichia coli [6] = test: Antibacterial activity against Escherichia coli; assay type: functional
Staphylococcus aureus [7] = test: Antibacterial activity against Staphylococcus aureus ATCC 29213 assessed as bacterial growth inhibition measured after 18 hrs by CLSI protocol based two-fold serial microdilution method; assay type: functional
Pseudomonas aeruginosa [8] = test: Antibacterial activity against Pseudomonas aeruginosa PAO1 assessed as bacterial growth inhibition measured for 18 hrs by CLSI-protocol based Mueller-Hinton Broth micro-dilution assay; assay type: functional
Escherichia coli [9] = test: Antibacterial activity against Escherichia coli K12 assessed as bacterial growth inhibition measured for 18 hrs by CLSI-protocol based Mueller-Hinton Broth micro-dilution assay; assay type: functional
Salmonella typhimurium = test: Antibacterial activity against Salmonella enterica subsp. enterica serovar Typhimurium LT2 assessed as bacterial growth inhibition measured for 18 hrs by CLSI-protocol based Mueller-Hinton Broth micro-dilution assay; assay type: functional
Erythrocyte [10] = test: Hemolytic activity in sheep RBC incubated for 30 mins; assay type: toxicity, cell-based, Ovis aries; settings: 0.5 h
Escherichia coli [11] = test: Antibacterial activity against Escherichia coli MG1655 assessed as bacterial growth inhibition measured for 18 hrs by CLSI-protocol based Mueller-Hinton Broth micro-dilution assay; assay type: functional
Staphylococcus aureus [12] = test: Antibacterial activity against Staphylococcus aureus ATCC 29213 assessed as bacterial growth inhibition measured for 18 hrs by CLSI-protocol based Mueller-Hinton Broth micro-dilution assay; assay type: functional
Pseudomonas aeruginosa [13] = test: Antibacterial activity against Pseudomonas aeruginosa ATCC 27853 assessed as bacterial growth inhibition measured for 18 hrs by CLSI-protocol based Mueller-Hinton Broth micro-dilution assay; assay type: functional
Staphylococcus aureus [14] = test: Antibacterial activity against methicillin-resistant Staphylococcus aureus ATCC BAA1720 assessed as bacterial growth inhibition measured for 18 hrs by CLSI-protocol based Mueller-Hinton Broth micro-dilution assay; assay type: functional
Bacillus subtilis [15] = test: Antibacterial activity against Bacillus subtilis 168 assessed as bacterial growth inhibition measured for 18 hrs by CLSI-protocol based Mueller-Hinton Broth micro-dilution assay; assay type: functional
[16] = Hemolytic activity in human RBC; assay type: toxicity, cell-based, Erythrocyte; settings: red blood cells
[17] = Hemolytic activity in mouse RBC incubated for 1 hr; assay type: toxicity, cell-based, Erythrocyte; settings: red blood cells
Enterococcus faecium [18] = test: Antimicrobial activity against Enterococcus faecium assessed as reduction in microbial growth incubated for 18 to 20 hrs by Mueller-Hinton broth based microdilution method; assay type: functional; settings: time 18-20 hrs
Staphylococcus aureus [19] = test: Antimicrobial activity against Staphylococcus aureus ATCC 25923 assessed as reduction in microbial growth incubated for 18 to 20 hrs by Mueller-Hinton broth based microdilution method; assay type: functional; settings: time 18-20 hrs
Bacillus subtilis [20] = test: Antimicrobial activity against Bacillus subtilis ATCC 23857 assessed as reduction in microbial growth incubated for 18 to 20 hrs by Mueller-Hinton broth based microdilution method; assay type: functional; settings: time 18-20 hrs
Escherichia coli [21] = test: Antibacterial activity against Escherichia coli ATCC 25922 assessed as bacterial growth inhibition incubate for 18 to 20 hrs by MH broth based assay; assay type: functional; settings: time 18-20 hrs
Erythrocyte [22] = test: Hemolytic activity in human red blood cells; assay type: toxicity, cell-based; settings: erythrocyte
Bacillus subtilis [23] = test: Antibacterial activity against Bacillus subtilis ATCC 23857 assessed as reduction in bacterial growth measured after 18 hrs by CLSI protocol-based Mueller-Hinton broth dilution method; assay type: functional
Pseudomonas aeruginosa [24] = test: Antibacterial activity against Pseudomonas aeruginosa ATCC 27853 assessed as reduction in bacterial growth measured after 18 hrs by CLSI protocol-based Mueller-Hinton broth dilution method; assay type: functional
Escherichia coli [25] = test: Antibacterial activity against Escherichia coli ATCC 25922 assessed as reduction in bacterial growth measured after 18 hrs by CLSI protocol-based Mueller-Hinton broth dilution method; assay type: functional
Staphylococcus aureus [26] = test: Antibacterial activity against Staphylococcus aureus ATCC 25923 assessed as reduction in bacterial growth measured after 18 hrs by CLSI protocol-based Mueller-Hinton broth dilution method; assay type: functional

SMILES: CC[C@H](C)[C@@H]1NC(=O)[C@@](C)(NC(=O)[C@H](CCCCN)NC(=O)[C@H](CC(C)C)NC(=O)[C@H](CC(C)C)NC(=O)CN)CCC/C=C\CCC[C@@](C)(C(=O)N[C@@H](CC(C)C)C(N)=O)NC(=O)[C@H]([C@@H](C)O)NC(=O)[C@H](CCCCN)NC1=O (H-GLLK[S5]IKT[S5]L-NH2; staple (Z) 5-9)
- MIC (Pseudomonas aeruginosa [8]): 16 µM (≈ 18.2 µg/mL)
- MIC (Escherichia coli [9]): 8 µM (≈ 9.08 µg/mL)
- MIC (Salmonella typhimurium): 32 µM (≈ 36.3 µg/mL)
- HC10 (Erythrocyte [10]): 8 µM
- MIC (Escherichia coli [11]): 32 µM (≈ 36.3 µg/mL)
- MIC (Staphylococcus aureus [12]): 4 µM (≈ 4.54 µg/mL)
- MIC (Pseudomonas aeruginosa [13]): 32 µM (≈ 36.3 µg/mL)
- MIC (Staphylococcus aureus [14]): 4 µM (≈ 4.54 µg/mL)
- MIC (Bacillus subtilis [15]): 4 µM (≈ 4.54 µg/mL)

SMILES: CC[C@H](C)[C@H](NC(=O)[C@H](CCCNC(=N)N)NC(=O)[C@H](CCCCN)NC(=O)[C@H](CC(C)C)NC(=O)[C@H](CC(C)C)NC(=O)CNC(=O)[C@H](CCCCn1cc(C[C@H](NC(C)=O)C(=O)NCC(=O)N[C@@H](CC(C)C)C(=O)N[C@@H](CC(C)C)C(=O)N[C@@H](CCCCN)C(=O)N[C@@H](CCCNC(=N)N)C(=O)N[C@H](C(=O)N[C@@H](CCCCN)C(=O)N[C@H](C(=O)N[C@@H](CC(C)C)C(=O)N[C@@H](CC(C)C)C(N)=O)[C@@H](C)O)[C@@H](C)CC)nn1)NC(C)=O)C(=O)N[C@@H](CCCCN)C(=O)N[C@H](C(=O)N[C@@H](CC(C)C)C(=O)N[C@@H](CC(C)C)C(N)=O)[C@@H](C)O (I: Ac-[Lys(N3)]GLLKRIKTLL-NH2 / II: Ac-[Pra]GLLKRIKTLL-NH2; triazole I:1-II:1)
- HC10 (Erythrocyte [22]): 150 µM
- MIC (Bacillus subtilis [23]): 2 µM (≈ 5.28 µg/mL)
- MIC (Pseudomonas aeruginosa [24]): 16 µM (≈ 42.2 µg/mL)
- MIC (Escherichia coli [25]): 4 µM (≈ 10.6 µg/mL)
- MIC (Staphylococcus aureus [26]): 8 µM (≈ 21.1 µg/mL)

SMILES: CC[C@H](C)[C@H](NC(=O)[C@H](CCCNC(=N)N)NC(=O)[C@H](CCCCN)NC(=O)[C@H](CC(C)C)NC(=O)[C@H](CC(C)C)NC(=O)CNC(=O)[C@H](Cc1cn(CCCC[C@H](NC(C)=O)C(=O)N[C@@H](CCCNC(=N)N)C(=O)N[C@@H](CCCNC(=N)N)C(=O)N[C@@H](Cc2c[nH]c3ccccc23)C(=O)N[C@@H](Cc2c[nH]c3ccccc23)C(=O)N[C@@H](CCCNC(=N)N)C(=O)N[C@@H](Cc2ccccc2)C(N)=O)nn1)NC(C)=O)C(=O)N[C@@H](CCCCN)C(=O)N[C@H](C(=O)N[C@@H](CC(C)C)C(=O)N[C@@H](CC(C)C)C(N)=O)[C@@H](C)O (I: Ac-[Pra]GLLKRIKTLL-NH2 / II: Ac-[Lys(N3)]RRWWRF-NH2; triazole I:1-II:1)
- HC10 (Erythrocyte [22]): > 150 µM
- MIC (Bacillus subtilis [23]): 4 µM (≈ 9.97 µg/mL)
- MIC (Pseudomonas aeruginosa [24]): 16 µM (≈ 39.9 µg/mL)
- MIC (Escherichia coli [25]): 8 µM (≈ 19.9 µg/mL)
- MIC (Staphylococcus aureus [26]): 4 µM (≈ 9.97 µg/mL)

Now from value to compound, other results behind:

- MIC (Pseudomonas aeruginosa [1]): 28.4 µM (≈ 33.6 µg/mL)
- MIC (Staphylococcus aureus [2]): 19.6 µM (≈ 23.2 µg/mL)
- MIC (Enterococcus faecium [4]): 9.5 µM (≈ 11.2 µg/mL)
- MIC (Escherichia coli [5]): 62.2 µM (≈ 73.6 µg/mL)
- MIC (Escherichia coli [6]): 14.2 µM (≈ 16.8 µg/mL)
- MIC (Staphylococcus aureus [7]): 62.2 µM (≈ 73.6 µg/mL)
SMILES: CC[C@H](C)[C@H](NC(=O)[C@H](Cc1c[nH]c2ccccc12)NC(=O)[C@H](CCCCN)NC(=O)[C@H](CC(C)C)NC(=O)[C@H](CC(C)C)NC(=O)CN)C(=O)N[C@@H](CCCCN)C(=O)N[C@H](C(=O)N[C@@H](CC(C)C)C(=O)N[C@@H](CC(C)C)C(N)=O)[C@@H](C)O (H-GLLKWIKTLL-NH2)
- HC50 [3]: 14 µM

- MIC (Enterococcus faecium [18]): 8 µM
- MIC (Staphylococcus aureus [19]): 16 µM
- MIC (Bacillus subtilis [20]): 8 µM
- MIC (Escherichia coli [21]): 16 µM (≈ 21.7 µg/mL)
SMILES: CC(C)C[C@H](NC(=O)[C@H](CC(C)C)NC(=O)[C@H](CCCCN)NC(=O)[C@H](CCCCN)NC(=O)[C@H](Cc1c[nH]c2ccccc12)NC(=O)[C@H](Cc1c[nH]c2ccccc12)NC(=O)[C@H](CCCCN)NC(=O)[C@H](CC(C)C)NC(=O)[C@H](CC(C)C)NC(=O)[C@@H](N)CCCCN)C(N)=O (H-KLLKWWKKLL-NH2)
- HC50 [16]: > 200 µM
- HC50 at 1 h [17]: > 200 µM
